In PubChem BioAssay AID2060498 (Molecular Pharmacology Branch, DTP, NCI, 2025):
Blank lines part the entries; values can stand above or below the compound they belong to.

System: 171881-019-R-J1-PDC tumor spheroids, viability
Assay: Anticancer human tumor 171881-019-R-J1-PDC patient-derived invasive breast carcinoma cell line growth inhibition [GQUAD]
Details: spheroids with HUVEC and MSC; for IC50: curve of first compound; for viability, T/C: stronger effect = lower value
Procedure, shortened: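 Multi-cell-type spheroids of tumor cells with HUVEC and mesenchymal stem cells, treated with drug combinations. Concentrations descend in half-log steps from near clinical Cmax, or from 10 microM where Cmax is unknown; viability read-out.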

[1] = second compound 0.0316 µM, first compound 0.0316 µM
[2] = second compound 0.0316 µM, first compound 0.1 µM
[3] = second compound 0.0316 µM, first compound 0.316 µM
[4] = second compound 0.0316 µM, first compound 1 µM
[5] = second compound 0.0316 µM, first compound 3.16 µM
[6] = second compound 0.0316 µM, first compound 10 µM
[7] = second compound 0.1 µM, first compound 0.0316 µM
[8] = second compound 0.1 µM, first compound 0.1 µM
[9] = second compound 0.1 µM, first compound 0.316 µM
[10] = second compound 0.1 µM, first compound 1 µM
[11] = second compound 0.1 µM, first compound 3.16 µM
[12] = second compound 0.1 µM, first compound 10 µM
[13] = second compound 0.316 µM, first compound 0.0316 µM
[14] = second compound 0.316 µM, first compound 0.1 µM
[15] = second compound 0.316 µM, first compound 0.316 µM
[16] = second compound 0.316 µM, first compound 1 µM
[17] = second compound 0.316 µM, first compound 3.16 µM
[18] = second compound 0.316 µM, first compound 10 µM
[19] = second compound 1 µM, first compound 0.0316 µM
[20] = second compound 1 µM, first compound 0.1 µM
[21] = second compound 1 µM, first compound 0.316 µM
[22] = second compound 1 µM, first compound 1 µM
[23] = second compound 1 µM, first compound 3.16 µM
[24] = second compound 1 µM, first compound 10 µM
[25] = second compound 3.16 µM, first compound 0.0316 µM
[26] = second compound 3.16 µM, first compound 0.1 µM
[27] = second compound 3.16 µM, first compound 0.316 µM
[28] = second compound 3.16 µM, first compound 1 µM
[29] = second compound 3.16 µM, first compound 3.16 µM
[30] = second compound 3.16 µM, first compound 10 µM
[31] = second compound 10 µM, first compound 0.0316 µM
[32] = second compound 10 µM, first compound 0.1 µM
[33] = second compound 10 µM, first compound 0.316 µM
[34] = second compound 10 µM, first compound 1 µM
[35] = second compound 10 µM, first compound 3.16 µM
[36] = second compound 10 µM, first compound 10 µM
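Note: spheroids exposed to compounds for 7 days.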
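Throughout, for viability, T/C: 100% = DMSO vehicle control viability.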

Compound: O=c1[nH]cc(F)c(=O)[nH]1 + Cc1[nH]c2ccc(F)cc2c1-c1nc2c3cccnc3c3ncccc3c2[nH]1
IC50 (second compound 0.0316 µM): > 10 µM | IC50 (second compound 0.1 µM): > 10 µM | IC50 (second compound 0.316 µM): > 10 µM | IC50 (second compound 1 µM): > 10 µM | IC50 (second compound 3.16 µM): < 0.0316 µM | IC50 (second compound 10 µM): < 0.0316 µM | viability, T/C [1]: 75.7% | viability, T/C [2]: 64.5% | viability, T/C [3]: 62.7% | viability, T/C [4]: 54.1% | viability, T/C [5]: 47.7% | viability, T/C [6]: 53% | viability, T/C [7]: 80.5% | viability, T/C [8]: 70.7% | viability, T/C [9]: 60.9% | viability, T/C [10]: 54.7% | viability, T/C [11]: 50.5% | viability, T/C [12]: 53.5% | viability, T/C [13]: 73.1% | viability, T/C [14]: 65.8% | viability, T/C [15]: 59.3% | viability, T/C [16]: 52.7% | viability, T/C [17]: 58.7% | viability, T/C [18]: 52% | viability, T/C [19]: 68.6% | viability, T/C [20]: 55.4% | viability, T/C [21]: 56.6% | viability, T/C [22]: 50.2% | viability, T/C [23]: 54.3% | viability, T/C [24]: 48.8% | viability, T/C [25]: 21% | viability, T/C [26]: 21.6% | viability, T/C [27]: 30.6% | viability, T/C [28]: 23.8% | viability, T/C [29]: 24.2% | viability, T/C [30]: 24.7% | viability, T/C [31]: 44.4% | viability, T/C [32]: 47.8% | viability, T/C [33]: 47.3% | viability, T/C [34]: 42% | viability, T/C [35]: 52.1% | viability, T/C [36]: 38.8%

IC50 (second compound 0.0316 µM): > 10 µM | IC50 (second compound 0.1 µM): > 10 µM | IC50 (second compound 0.316 µM): > 10 µM | IC50 (second compound 1 µM): > 10 µM | IC50 (second compound 3.16 µM): > 10 µM | IC50 (second compound 10 µM): > 10 µM
Compound: C=CC(=O)N1CCN(c2nc(=O)n(-c3c(C)ccnc3C(C)C)c3nc(-c4c(O)cccc4F)c(F)cc23)C(C)C1 (stereo not given) + Cc1cnc(CNC(=O)c2c(=O)c3ccc(N4CCCN(C)CC4)nc3n3c2sc2ccccc23)cn1
viability, T/C [1]: 113% | viability, T/C [2]: 92.9% | viability, T/C [3]: 100% | viability, T/C [4]: 103% | viability, T/C [5]: 87.2% | viability, T/C [6]: 50.9% | viability, T/C [7]: 88.3% | viability, T/C [8]: 90.8% | viability, T/C [9]: 78.4% | viability, T/C [10]: 93.2% | viability, T/C [11]: 81.6% | viability, T/C [12]: 55.8% | viability, T/C [13]: 79.2% | viability, T/C [14]: 80.4% | viability, T/C [15]: 80.9% | viability, T/C [16]: 82.2% | viability, T/C [17]: 82.6% | viability, T/C [18]: 63.4% | viability, T/C [19]: 73.4% | viability, T/C [20]: 63.2% | viability, T/C [21]: 77.7% | viability, T/C [22]: 78.1% | viability, T/C [23]: 81.8% | viability, T/C [24]: 66.5% | viability, T/C [25]: 70.6% | viability, T/C [26]: 67.5% | viability, T/C [27]: 73.2% | viability, T/C [28]: 66.3% | viability, T/C [29]: 83.3% | viability, T/C [30]: 68.9% | viability, T/C [31]: 61.2% | viability, T/C [32]: 65.1% | viability, T/C [33]: 65.7% | viability, T/C [34]: 74.5% | viability, T/C [35]: 81.7% | viability, T/C [36]: 68%

Compound: CCCS(=O)(=O)Nc1ccc(F)c(C(=O)c2c[nH]c3ncc(-c4ccc(Cl)cc4)cc23)c1F + Cc1[nH]c2ccc(F)cc2c1-c1nc2c3cccnc3c3ncccc3c2[nH]1
IC50 (second compound 0.0316 µM): 9.32 µM | IC50 (second compound 0.1 µM): 8.86 µM | IC50 (second compound 0.316 µM): 7.73 µM | IC50 (second compound 1 µM): 5.62 µM | IC50 (second compound 3.16 µM): < 0.0316 µM | IC50 (second compound 10 µM): 0.0316 µM | viability, T/C [1]: 104% | viability, T/C [2]: 106% | viability, T/C [3]: 102% | viability, T/C [4]: 121% | viability, T/C [5]: 99% | viability, T/C [6]: 46.7% | viability, T/C [7]: 105% | viability, T/C [8]: 106% | viability, T/C [9]: 105% | viability, T/C [10]: 107% | viability, T/C [11]: 110% | viability, T/C [12]: 43.3% | viability, T/C [13]: 90.2% | viability, T/C [14]: 77.2% | viability, T/C [15]: 98.2% | viability, T/C [16]: 93.2% | viability, T/C [17]: 95.8% | viability, T/C [18]: 38.1% | viability, T/C [19]: 73.7% | viability, T/C [20]: 60.8% | viability, T/C [21]: 82.4% | viability, T/C [22]: 80.7% | viability, T/C [23]: 77.4% | viability, T/C [24]: 25% | viability, T/C [25]: 7.61% | viability, T/C [26]: 8.32% | viability, T/C [27]: 6.95% | viability, T/C [28]: 5.17% | viability, T/C [29]: 12.6% | viability, T/C [30]: 8.93% | viability, T/C [31]: 46.9% | viability, T/C [32]: 45.5% | viability, T/C [33]: 44.4% | viability, T/C [34]: 55.2% | viability, T/C [35]: 51.3% | viability, T/C [36]: 18.5%

IC50 (second compound 0.0316 µM): 1.62 µM | IC50 (second compound 0.1 µM): 1.71 µM | IC50 (second compound 0.316 µM): 1.47 µM | IC50 (second compound 1 µM): 1.19 µM | IC50 (second compound 3.16 µM): 1.07 µM | IC50 (second compound 10 µM): 0.927 µM
Compound: CC(C)(O)C1CCC(Nc2ccc3ncc(-c4cccc(C(F)(F)F)c4)n3n2)CC1 (stereo not given) + Cc1cnc(CNC(=O)c2c(=O)c3ccc(N4CCCN(C)CC4)nc3n3c2sc2ccccc23)cn1
viability, T/C [1]: 95.8% | viability, T/C [2]: 87.5% | viability, T/C [3]: 89.5% | viability, T/C [4]: 69.7% | viability, T/C [5]: 18.2% | viability, T/C [6]: 26.9% | viability, T/C [7]: 88.7% | viability, T/C [8]: 83.8% | viability, T/C [9]: 70.9% | viability, T/C [10]: 73.4% | viability, T/C [11]: 19% | viability, T/C [12]: 27.2% | viability, T/C [13]: 76.5% | viability, T/C [14]: 76.7% | viability, T/C [15]: 72% | viability, T/C [16]: 63.1% | viability, T/C [17]: 21.9% | viability, T/C [18]: 25.7% | viability, T/C [19]: 71.9% | viability, T/C [20]: 65.2% | viability, T/C [21]: 72.9% | viability, T/C [22]: 56.3% | viability, T/C [23]: 13.6% | viability, T/C [24]: 18% | viability, T/C [25]: 65.4% | viability, T/C [26]: 60% | viability, T/C [27]: 63.1% | viability, T/C [28]: 53.1% | viability, T/C [29]: 0.32% | viability, T/C [30]: 0.82% | viability, T/C [31]: 59.3% | viability, T/C [32]: 62.5% | viability, T/C [33]: 58.1% | viability, T/C [34]: 49.3% | viability, T/C [35]: 0.4% | viability, T/C [36]: 0.62%

Compound: C=CCn1c(=O)c2cnc(Nc3ccc(N4CCN(C)CC4)cc3)nc2n1-c1cccc(C(C)(C)O)n1 + Cc1[nH]c2ccc(F)cc2c1-c1nc2c3cccnc3c3ncccc3c2[nH]1
IC50 (second compound 0.0316 µM): 0.624 µM | IC50 (second compound 0.1 µM): 0.592 µM | IC50 (second compound 0.316 µM): 0.37 µM | IC50 (second compound 1 µM): 0.132 µM | IC50 (second compound 3.16 µM): < 0.0316 µM | IC50 (second compound 10 µM): < 0.0316 µM | viability, T/C [1]: 91.2% | viability, T/C [2]: 94% | viability, T/C [3]: 77% | viability, T/C [4]: 31.3% | viability, T/C [5]: 21.4% | viability, T/C [6]: 23.4% | viability, T/C [7]: 103% | viability, T/C [8]: 86% | viability, T/C [9]: 68.1% | viability, T/C [10]: 36.7% | viability, T/C [11]: 20.5% | viability, T/C [12]: 23.2% | viability, T/C [13]: 78.3% | viability, T/C [14]: 65.4% | viability, T/C [15]: 56% | viability, T/C [16]: 28.1% | viability, T/C [17]: 23.1% | viability, T/C [18]: 25% | viability, T/C [19]: 68.1% | viability, T/C [20]: 51.4% | viability, T/C [21]: 42.5% | viability, T/C [22]: 25.5% | viability, T/C [23]: 23.4% | viability, T/C [24]: 21.3% | viability, T/C [25]: 11.4% | viability, T/C [26]: 5.61% | viability, T/C [27]: 5.52% | viability, T/C [28]: 4.19% | viability, T/C [29]: 5.08% | viability, T/C [30]: 4.35% | viability, T/C [31]: 43.9% | viability, T/C [32]: 30.7% | viability, T/C [33]: 23.1% | viability, T/C [34]: 17.5% | viability, T/C [35]: 15.7% | viability, T/C [36]: 13.6%
